# Experiments:
# [1] = tested on: Wistar rats, transient occlusion of the middle cerebral artery; test: Rat model of transient middle cerebral artery occlusion (tMCAO): infarct volume and edema at 48 hours; format: in vivo
# From the text: The effect of compounds of the present invention on infarct volume and edema was examined in an animal model of ischemic stroke. For these studies, male Wistar rats (320 g) were subjected to transient occlusion of the middle cerebral artery. Rats were anesthetized with 3% isoflurane in oxygen. Aseptic technique was used for all procedures during these studies. The surgical site was clipped and cleaned with alcohol and surgical scrub. Each animal was placed on a warm water heating pad to maintain body temperature. A paramedian incision was made on the neck over the carotid artery. The tissue was bluntly dissected away to reveal the carotid artery and the carotid artery bifurcation. Sutures were placed around the proximal portion of the common carotid and the external carotid arteries and were then tied off. An incision was made in the common carotid, distal to the ligation and a pre-prepared filament (3-0 monofilament suture or like material) was placed in the carotid and advanced into the internal carotid artery. The filament was advanced approximately 20 millimeters past the carotid bifurcation until slight resistance was felt as it wedged inside the middle cerebral artery (MCA). Care was taken to not rupture the artery upon insertion of the filament. The filament was tied in place and the skin incision closed. At this time isoflurane was discontinued and the animals were allowed to awaken.
# One hour after surgery, the success of MCA occlusion was assessed using the Bederson scale, as previously described. (See Bederson et al., (1986) Stroke, 17:1304-1308.) Sixty minutes after occlusion, the animals were re-anesthetized for reperfusion. The skin incision was reopened and the filament was carefully withdrawn from the MCA but not completely removed. Body temperature was taken every 15 minutes throughout the study to maintain normothermia. Animals that have undergone the MCA occlusion procedure may have difficulty in thermoregulation for a few hours after surgery. Animals were placed in a cooling or heating box as determined by their body temperature. Body temperature was maintained at 37.5° C.
# Various compounds of the present invention were administered by oral gavage (p.o.) at reperfusion or at reperfusion and again at 24 hours after reperfusion in 0.5% CMC and 0.1% Polysorbate 80 at various doses (see Table 10 below). Forty-eight hours after MCA occlusion animals were euthanized with CO2 and their brains removed. After removal, the brain was sliced into 7 coronal sections, 2 mm thick. The sections were placed rostral side down in a petri dish and stained with 1% Triphenyl tetrazolium chloride for 20 minutes at 37° C. for determination of infarct volume. Brain sections were then digitally photographed and analyzed for changes in infarct volume and extent of edema. Infarct volumes were determined by measuring the infarcted (i.e., non-stained) areas of each brain section and multiplying this value by the section thickness. Extent of edema was determined by the net increase in volume of the ipsilateral cortex compared to that of the contralateral cortex of brain sections.
# [2] = tested on: vascular endothelial growth factor (VEGF); test: VEGF expression in Kelly neuroblastoma cells; format: cell-based; conditions: for VEGF: conditioned media after overnight incubation
# Method in brief: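 Kelly neuroblastoma cells treated overnight with compound, 1% DMSO as negative control. EPO and VEGF secreted into conditioned media measured by QUANTIKINE immunoassay.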
# [3] = tested on: vascular endothelial growth factor (VEGF); test: Brain VEGF gene expression in mice after intravenous injection; format: in vivo, Swiss Webster mice; conditions: 20 mg/kg i.v., four hours, quantitative real time PCR normalized to 18s RNA
# Procedure: The effect of compounds of the present invention on regulation of cytoprotective and neuroprotective gene expression in brain was evaluated. In one series of experiments, male Swiss Webster mice were administered by intravenous injection various compounds of the present invention. Animals treated by intravenous injection received a 6 ml/kg volume of either 5% Dextrose with an equimolar amount of Meglumine (vehicle control) or 20 mg/kg of a compound of the present invention in 5% dextrose with an equimolar amount of Meglumine Animals were euthanized four hours later and their brains placed in RNAlater (Ambion, Austin Tex.) for subsequent analysis. Tissues were homogenized in Trizol (Invitrogen, Carlsbad Calif.) using 5-mm steel beads in a Mixer Mill (Qiagen, Valencia Calif.). RNA was isolated from the Trizol solution and then further purified using RNeasy kit (Qiagen). cDNA was prepared from […] total RNA using Omniscript reverse transcriptase (Qiagen) and random hexamers. Quantitative real time PCR was performed in a 7900HT instrument (Applied Biosystems, Foster City Calif.) using TaqMan Assays-on-Demand (Applied Biosystems). Gene expression levels were normalized to that of 18s RNA.
# [4] = p.o. 6 mg/kg at reperfusion, 48 hours after MCA occlusion
# [5] = 1 Dose 60 mg/kg p.o. at reperfusion
# [6] = 2 Doses 60 mg/kg p.o., at reperfusion and 24 hours later
# [7] = p.o. 60 mg/kg at reperfusion, 48 hours after MCA occlusion
SMILES,"Percent Reduction in Edema [1, 4] [%]","Percent Reduction in Infarct Volume [1, 4] [%]",VEGF Fold Increase [2],VEGF [2] [pg/mL],"Percent Reduction in Edema [1, 5] [%]","Percent Reduction in Infarct Volume [1, 5] [%]","Percent Reduction in Edema [1, 6] [%]","Percent Reduction in Infarct Volume [1, 6] [%]","Percent Reduction in Edema [1, 7] [%]","Percent Reduction in Infarct Volume [1, 7] [%]",VEGF gene expression in brain [3]
"Cc1cccc(C)c1Oc1ccc2c(C#N)nc(C(=O)NCC(=O)O)c(O)c2c1 [Compound AL, {[1-Cyano-6-(2,6-dimethyl-phenoxy)-4-hydroxy-isoquinoline-3-carbonyl]-amino}-acetic acid]",12,51,3.8,5499,–,–,–,–,–,–,–
"N#Cc1nc(C(=O)NCC(=O)O)c(O)c2c(Oc3ccc(F)cc3)cccc12 [Compound AS, {[1-Cyano-5-(4-fluoro-phenoxy)-4-hydroxy-isoquinoline-3-carbonyl]-amino}-acetic acid]",32,58,5.6,8197,–,–,–,–,–,–,–
"COc1ccc(Oc2ccc3c(O)c(C(=O)NCC(=O)O)ncc3c2)cc1 [Compound F, {[4-Hydroxy-7-(4-methoxy-phenoxy)-isoquinoline-3-carbonyl]-amino}-acetic acid]",–,–,16.2,2564.9,28,42,39,70,39,70,1.5
